Results published in patent publication US20040110802A1, “Antibacterial benzoic acid derivatives” (priority 2002, published 2004).
Values after ≈ are worked out from the molar mass of the structure shown.

What follows are compounds tested on SAUR 9218 (assay: MIC Test Method, standard agar dilution). Conditions: agar dilution, Mueller Hinton agar, incubated overnight at 35° C.; lowest concentration that inhibits visible growth; read-out: SAUR 9218 MIC.
Assay type: cell-based
Method in brief: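 MIC (μg/ml) was read as the lowest drug level without visible growth of SAUR 9218 after overnight incubation at 35 °C. Inocula of about 10^4 to 10^5 cells per spot were applied to Mueller Hinton agar containing 2-fold serial compound dilutions.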

SMILES | MIC
CC(C)Sc1ccc(C(=O)Nc2ccc(Br)cc2C(=O)O)cn1 | 1 µg/mL (≈ 2.53 µM)
N#Cc1ccc(NC(=O)c2cc3cc(OCc4ccccc4)ccc3[nH]2)c(C(=O)O)c1 | 16 µg/mL (≈ 38.9 µM)
Cc1c(S(=O)(=O)NC2CCN(Cc3ccccc3)CC2)csc1C(=O)Nc1ccc(Br)cc1C(=O)O | > 128 µg/mL
CCCCS(=O)(=O)Nc1cccc2cc(C(=O)Nc3ccc(C#N)cc3C(=O)O)n(C)c12 | 0.25 µg/mL (≈ 0.55 µM)
Cc1ccc(CC(=O)Nc2cccc3cc(C(=O)Nc4ccc(C#N)cc4C(=O)O)[nH]c23)cc1 | 0.5 µg/mL (≈ 1.11 µM)
N#Cc1ccc(NC(=O)c2cc3cccc(NC(=O)Cc4ccc(Cl)c(Cl)c4)c3[nH]2)c(C(=O)O)c1 | 0.125 µg/mL (≈ 0.246 µM)
O=C(O)c1cc(Cl)ccc1NC(=O)c1cc2ccccc2n1CCCc1ccccc1 | 4 µg/mL (≈ 9.24 µM)
O=C(COc1ccccc1-c1cc(C(=O)Nc2ccc(O)cc2C(=O)O)no1)c1ccccc1 | 0.5 µg/mL (≈ 1.09 µM)
Cn1c(C(=O)Nc2ccc(C#N)cc2C(=O)O)cc2cccc(NC(=O)Cc3ccc(F)cc3)c21 | 0.125 µg/mL (≈ 0.266 µM)
C=CCn1c(C(=O)Nc2ccc(Cl)cc2C(=O)O)cc2ccccc21 | 1 µg/mL (≈ 2.82 µM)
CCC(CC)C(=O)Nc1cccc2cc(C(=O)Nc3ccc(C#N)cc3C(=O)O)[nH]c12 | 1 µg/mL (≈ 2.39 µM)
Cn1c(C(=O)Nc2ccc(I)cc2C(=O)O)cc2ccccc21 | 4 µg/mL (≈ 9.52 µM)
CCC(=O)COc1ccccc1-c1cc(C(=O)Nc2ccc(O)cc2C(=O)O)no1 | 1 µg/mL (≈ 2.44 µM)
O=C(O)c1cc(Br)ccc1NC(=O)c1cc(-c2ccccc2)nc2ccccc12 | 64 µg/mL (≈ 143 µM)
Cc1sc(C(=O)Nc2ccc(Br)cc2C(=O)O)cc1S(=O)(=O)N1CCc2ccc(Cl)cc21 | 1 µg/mL (≈ 1.8 µM)
Cn1c(C(=O)Nc2ccc(C#N)cc2C(=O)O)cc2cccc(OCCCOc3ccccc3)c21 | 0.125 µg/mL (≈ 0.266 µM)
CC(C)[Si](c1cc(C(=O)Nc2ccc(C#N)cc2C(=O)O)no1)(C(C)C)C(C)C | 0.5 µg/mL (≈ 1.21 µM)
O=C(Nc1ccc(Br)cc1C(=O)O)c1ccc(-c2cccc(C(F)(F)F)c2)o1 | 16 µg/mL (≈ 35.2 µM)
N#Cc1ccc(NC(=O)c2cc3cccc(NS(=O)(=O)c4ccc(OC(F)(F)F)cc4)c3[nH]2)c(C(=O)O)c1 | 1 µg/mL (≈ 1.84 µM)
N#Cc1ccc(NC(=O)c2cncc(-c3cnc4ccccc4c3)c2)c(C(=O)O)c1 | > 128 µg/mL
O=C(Nc1ccc(Br)cc1C(=O)O)c1ncc(-c2ccccc2)o1 | 1 µg/mL (≈ 2.58 µM)
CC(=O)OC(C(=O)Nc1cccc2cc(C(=O)Nc3ccc(C#N)cc3C(=O)O)[nH]c12)c1ccccc1 (stereo not drawn) | 1 µg/mL (≈ 2.01 µM)
Cc1c(S(=O)(=O)N2CC3CC2CN3Cc2ccccc2)csc1C(=O)Nc1ccc(Br)cc1C(=O)O (stereo not drawn) | > 128 µg/mL

SMILES | MIC
O=C(Nc1ccc(Br)cc1C(=O)O)c1cccc(SCc2ccccc2)n1 | 16 µg/mL (≈ 36.1 µM)
CCOc1nc(SCc2ccccc2)ncc1C(=O)Nc1ccc(C#N)cc1C(=O)O | 8 µg/mL (≈ 18.4 µM)
Cn1c(C(=O)Nc2ccc(Br)cc2C(=O)O)cc2ccccc21 | 0.5 µg/mL (≈ 1.34 µM)
N#Cc1ccc(NC(=O)c2[nH]c3c(OCc4ccccc4)cccc3c2Br)c(C(=O)O)c1 | 0.5 µg/mL (≈ 1.02 µM)
COC(=O)CCCC(=O)Nc1cccc2cc(C(=O)Nc3ccc(C#N)cc3C(=O)O)[nH]c12 | 0.5 µg/mL (≈ 1.11 µM)
Cc1sc(C(=O)Nc2ccc(Br)cc2C(=O)O)cc1S(=O)(=O)N1CCN(c2ccc(Cl)cc2)CC1 | > 128 µg/mL
CN(c1ccc(Cl)cc1)S(=O)(=O)c1ccc(C(=O)Nc2ccc(Br)cc2C(=O)O)o1 | 16 µg/mL (≈ 31.1 µM)
CC(C)=CCOCC(O)COc1cccc2cc(C(=O)Nc3ccc(C#N)cc3C(=O)O)n(C)c12 (stereo not drawn) | 0.5 µg/mL (≈ 1.05 µM)
CNS(=O)(=O)c1ccc2onc(C(=O)Nc3ccc(C#N)cc3C(=O)O)c2c1 | 0.06 µg/mL (≈ 0.15 µM)
O=C(Nc1ccc(Br)cc1C(=O)O)c1ccnc(SCc2ccccc2)c1 | 2 µg/mL (≈ 4.51 µM)
Cn1c(C(=O)Nc2ccc(C#N)cc2C(=O)O)cc2cccc(-c3ccc(S(C)(=O)=O)cc3)c21 | 8 µg/mL (≈ 16.9 µM)
N#Cc1ccc(NC(=O)c2cc3cccc(NC(=O)C4CC4c4ccccc4)c3[nH]2)c(C(=O)O)c1 (stereo not drawn) | 0.5 µg/mL (≈ 1.08 µM)
CCCCCSc1nnc(C(=O)Nc2ccc(Br)cc2C(=O)O)o1 | 0.25 µg/mL (≈ 0.603 µM)
CN(CC(O)C(O)C(O)C(O)CO)C(=O)Nc1cccc2cc(C(=O)Nc3ccc(C#N)cc3C(=O)O)n(C)c12 (stereo not drawn) | 32 µg/mL (≈ 57.6 µM)
N#Cc1ccc(NC(=O)c2cc3cccc(NC(=O)c4ccc(Cl)nc4)c3[nH]2)c(C(=O)O)c1 | 1 µg/mL (≈ 2.17 µM)
CC(=O)OCC(=O)Nc1cccc2cc(C(=O)Nc3ccc(C#N)cc3C(=O)O)[nH]c12 | 2 µg/mL (≈ 4.76 µM)
CC(=O)OCC(=O)Nc1ccc2cc(C(=O)Nc3ccc(C#N)cc3C(=O)O)n(C)c2c1 | 1 µg/mL (≈ 2.3 µM)
Cn1nc(-c2ccccc2)cc1C(=O)Nc1ccc(Br)cc1C(=O)O | 64 µg/mL (≈ 160 µM)
Cc1ccc(C(=O)Nc2ccc(Br)cc2C(=O)O)s1 | 64 µg/mL (≈ 188 µM)
CCCCN(CCCC)CCCNS(=O)(=O)c1cc(C(=O)Nc2ccc(Br)cc2C(=O)O)cs1 | > 128 µg/mL
Cc1nn(C)c(Cl)c1S(=O)(=O)Nc1cccc2cc(C(=O)Nc3ccc(C#N)cc3C(=O)O)n(C)c12 | 0.125 µg/mL (≈ 0.237 µM)
O=C(Nc1ccc(Br)cc1C(=O)O)c1nnc(SCc2ccccc2)s1 | 0.125 µg/mL (≈ 0.278 µM)

Continued, values first:

MIC | SMILES
1 µg/mL (≈ 3.09 µM) | N#Cc1ccc(NC(=O)c2nsc3ccccc23)c(C(=O)O)c1
16 µg/mL (≈ 29 µM) | CC(=O)c1ccc(N2CCN(S(=O)(=O)c3cc(C(=O)Nc4ccc(C#N)cc4C(=O)O)sc3C)CC2)cc1
0.5 µg/mL (≈ 1.22 µM) | Cn1c(C(=O)Nc2ccc(C#N)cc2C(=O)O)cc2cccc(OC[C@H](O)CO)c21
32 µg/mL (≈ 99.9 µM) | Cn1nc(C(=O)Nc2ccc(C#N)cc2C(=O)O)c2ccccc21
0.5 µg/mL (≈ 1.2 µM) | COc1ccc(-c2cc(C(=O)Nc3ccc(Br)cc3C(=O)O)no2)cc1
1 µg/mL (≈ 2.16 µM) | N#Cc1ccc(NC(=O)c2noc3cc(NS(=O)(=O)c4ccccc4)ccc23)c(C(=O)O)c1
8 µg/mL | N#Cc1ccc(NC(=O)c2cc(CNCc3ccncc3)on2)c(C(=O)O)c1.O=C(O)C(F)(F)F
0.5 µg/mL | CCCSc1ccc(C(=O)Nc2ccc(C#N)cc2C(=O)O)cn1.Cl
0.125 µg/mL (≈ 0.263 µM) | Cn1c(C(=O)Nc2ccc(C#N)cc2C(=O)O)cc2cccc(NS(=O)(=O)CCCCl)c21
16 µg/mL (≈ 38.9 µM) | N#Cc1ccc(NC(=O)c2cncc(-c3cccc(C(F)(F)F)c3)c2)c(C(=O)O)c1
1 µg/mL (≈ 2.85 µM) | N#Cc1ccc(NC(=O)c2ncc(-c3ccc(F)cc3)o2)c(C(=O)O)c1
1 µg/mL | Cl.Cn1c(C(=O)Nc2ccc(C#N)cc2C(=O)O)cc2cccc(OCC(O)CN3CCOCC3)c21 (stereo not drawn)
2 µg/mL (≈ 5.52 µM) | CC(=O)Nc1cccc2cc(C(=O)Nc3ccc(C#N)cc3C(=O)O)[nH]c12
0.5 µg/mL (≈ 1.55 µM) | N#Cc1ccc(NC(=O)c2noc3ccc(N)cc23)c(C(=O)O)c1
2 µg/mL (≈ 4.51 µM) | N#Cc1ccc(NC(=O)c2cc(-c3ccccc3OCC3C=CCCC3)on2)c(C(=O)O)c1 (stereo not drawn)
0.25 µg/mL (≈ 0.677 µM) | CCC(CC)Sc1ccc(C(=O)Nc2ccc(C#N)cc2C(=O)O)cn1
1 µg/mL (≈ 3.19 µM) | CC(C)(C)c1cc(C(=O)Nc2ccc(C#N)cc2C(=O)O)no1
0.5 µg/mL (≈ 1.2 µM) | Cc1ccc(-c2cccc3cc(C(=O)Nc4ccc(C#N)cc4C(=O)O)n(C)c23)s1
32 µg/mL (≈ 104 µM) | N#Cc1ccc(NC(=O)c2cc3cccn3cn2)c(C(=O)O)c1
0.5 µg/mL (≈ 1.03 µM) | N#Cc1ccc(NC(=O)c2cc(-c3ccccc3OCCCOc3ccccc3)on2)c(C(=O)O)c1
4 µg/mL (≈ 13.1 µM) | N#Cc1ccc(NC(=O)c2cc(CCl)on2)c(C(=O)O)c1
32 µg/mL (≈ 73.5 µM) | Cc1sc(C(=O)Nc2ccc(C#N)cc2C(=O)O)cc1S(=O)(=O)N1CCOCC1
4 µg/mL (≈ 10.1 µM) | N#Cc1ccc(NC(=O)c2csc(SCc3ccccc3)n2)c(C(=O)O)c1
0.015 µg/mL (≈ 0.0341 µM) | CC(=O)Nc1cccc(-c2ccc3c(C(=O)Nc4ccc(C#N)cc4C(=O)O)noc3c2)c1
0.5 µg/mL (≈ 1.34 µM) | N#Cc1ccc(NC(=O)c2cc(OCc3ccccc3)ccn2)c(C(=O)O)c1
0.5 µg/mL (≈ 1.08 µM) | CS(=O)(=O)c1ccc(-c2ccc3onc(C(=O)Nc4ccc(C#N)cc4C(=O)O)c3c2)cc1
8 µg/mL (≈ 22.4 µM) | Cc1ccccc1-c1cncc(C(=O)Nc2ccc(C#N)cc2C(=O)O)c1

MIC | SMILES
1 µg/mL (≈ 3 µM) | CCn1c(C(=O)Nc2ccc(C#N)cc2C(=O)O)cc2ccccc21
16 µg/mL (≈ 46.3 µM) | N#Cc1ccc(NC(=O)c2cncc(-c3cnccn3)c2)c(C(=O)O)c1
0.25 µg/mL (≈ 0.577 µM) | N#Cc1ccc(NC(=O)c2cc(-c3ccccc3OC3CCOCC3)on2)c(C(=O)O)c1
0.25 µg/mL | Cl.N#Cc1ccc(NC(=O)c2ccc(SCc3ccccc3)nc2)c(C(=O)O)c1
0.25 µg/mL (≈ 0.605 µM) | N#Cc1ccc(NC(=O)c2noc3cc(OCc4ccccc4)ccc23)c(C(=O)O)c1
0.5 µg/mL (≈ 1.61 µM) | N#Cc1ccc(NC(=O)c2noc3c2CCCC3)c(C(=O)O)c1
0.125 µg/mL (≈ 0.298 µM) | CCCC(C)Oc1ccccc1-c1cc(C(=O)Nc2ccc(C#N)cc2C(=O)O)no1 (stereo not drawn)
32 µg/mL (≈ 106 µM) | N#Cc1ccc(NC(=O)c2cnc(Cl)cn2)c(C(=O)O)c1
2 µg/mL (≈ 5.49 µM) | CC(=O)Nc1ccc2onc(C(=O)Nc3ccc(C#N)cc3C(=O)O)c2c1
1 µg/mL (≈ 2.53 µM) | O=C(O)c1cc(Br)ccc1NC(=O)c1noc2cc(Cl)ccc12
2 µg/mL (≈ 5.95 µM) | Cn1cccc1-c1cnc(C(=O)Nc2ccc(C#N)cc2C(=O)O)o1
0.25 µg/mL (≈ 0.506 µM) | O=C(O)c1cc(Br)ccc1NC(=O)c1noc2ccc(S(=O)(=O)N3CCCC3)cc12
8 µg/mL (≈ 20.9 µM) | N#Cc1ccc(NC(=O)c2cc3cc(-c4ccccc4)oc3cn2)c(C(=O)O)c1
2 µg/mL (≈ 4.95 µM) | CC(C)CC(=O)Nc1cccc2cc(C(=O)Nc3ccc(C#N)cc3C(=O)O)[nH]c12
0.25 µg/mL (≈ 0.564 µM) | COc1ccc(OC)c(-c2ccc3onc(C(=O)Nc4ccc(C#N)cc4C(=O)O)c3c2)c1
64 µg/mL (≈ 125 µM) | Cc1sc(C(=O)Nc2ccc(C#N)cc2C(=O)O)cc1S(=O)(=O)N1CCN(c2ncccn2)CC1
> 128 µg/mL | O=C(Nc1ccc(Br)cc1C(=O)O)c1ccoc1
0.5 µg/mL (≈ 1.35 µM) | COC(=O)CSc1ccc(C(=O)Nc2ccc(C#N)cc2C(=O)O)cn1
0.5 µg/mL (≈ 1.15 µM) | CCCCCCOc1ccccc1-c1cc(C(=O)Nc2ccc(C#N)cc2C(=O)O)no1
16 µg/mL (≈ 44.9 µM) | N#Cc1ccc(NC(=O)c2cc(CN3CCOCC3)on2)c(C(=O)O)c1
8 µg/mL (≈ 17.9 µM) | Cc1sc(C(=O)Nc2ccc(C#N)cc2C(=O)O)cc1S(=O)(=O)N1CCC(C)CC1
0.125 µg/mL (≈ 0.356 µM) | N#Cc1ccc(NC(=O)c2cc(-c3ccccc3F)on2)c(C(=O)O)c1
> 128 µg/mL | O=C(Nc1ccc(Br)cc1C(=O)O)c1ccccn1
32 µg/mL (≈ 89.3 µM) | Cc1ccccc1-c1cnc(C(=O)Nc2ccc(C#N)cc2C(=O)O)cn1
> 128 µg/mL | Cc1noc(C)c1-c1cnc(C(=O)Nc2ccc(C#N)cc2C(=O)O)cn1
16 µg/mL (≈ 34.5 µM) | Cc1sc(C(=O)Nc2ccc(C#N)cc2C(=O)O)cc1S(=O)(=O)N1CC(C)OC(C)C1 (stereo not drawn)
1 µg/mL (≈ 2.3 µM) | O=C(Nc1ccc(I)cc1C(=O)O)c1cc(-c2ccccc2)on1
